Blank lines part the entries; values can stand above or below the compound they belong to.
What was measured:
[1] = Antiproliferative activity against mouse LM2 cells after 72 hrs by Celltiter-glo luminescence assay; type: functional, cell-based
[2] = test system: MDA-MB-231; experiment: Antiproliferative activity against human MDA-MB-231 cells after 72 hrs by Celltiter-glo luminescence assay; type: functional, cell-based; details: MDA-MB-231, 72 h
[3] = Ratio of EC50 for CRISPR PAICS knock out mouse LM2 cells to EC50 for mouse wild type LM2 cells; type: functional

SMILES: CNC1CCN(Cc2ncc(-c3ccc(Cl)c(NC(=O)c4coc(N)n4)c3)s2)CC1
- EC50 [1]: < 100 nM

SMILES: Nc1nc(C(=O)Nc2cc(-c3cnn(C4CCCNC4)c3)ccc2Cl)co1 (configuration not stated)
- EC50 [1]: 100 to 250 nM

SMILES: Nc1nc(C(=O)Nc2cc(-c3ccc(OC4CCNC4)nc3)ccc2Cl)co1 (configuration not stated)
- EC50 [1]: 250 to 500 nM

SMILES: Nc1nc(C(=O)Nc2cc(-c3ccc(CN4CCNCC4)cc3)ccc2Cl)co1
- EC50 [1]: 250 to 500 nM

SMILES: CSc1ccc(-c2cnc(OCCCN(C)C)s2)cc1NC(=O)c1coc(N)n1
- EC50 [1]: 100 to 250 nM

SMILES: CN1CCC(n2cc(-c3ccc(Cl)c(NC(=O)c4coc(N)n4)c3)cn2)CC1
- EC50 [1]: 100 to 250 nM

SMILES: CC(C)NCCCOc1ccc(-c2ccc(Cl)c(NC(=O)c3coc(N)n3)c2)cn1
- EC50 [1]: 100 to 250 nM

SMILES: CN1CC(n2cc(-c3ccc(Cl)c(NC(=O)c4coc(N)n4)c3)cn2)C1
- EC50 [1]: 100 to 250 nM

- EC50 [2]: 250 to 500 nM
SMILES: CN(C)CCCOc1nc(-c2ccc(Cl)c(NC(=O)c3coc(N)n3)c2)cs1
- EC50 [1]: 250 to 500 nM

SMILES: CN1CCN(Cc2ccc(-c3ccc(Cl)c(NC(=O)c4coc(N)n4)c3)cn2)CC1
- EC50 [1]: 250 to 500 nM

SMILES: Nc1nc(C(=O)Nc2cc(-c3cnc(CN4CCNCC4)s3)ccc2Cl)co1
- EC50 [1]: 100 to 250 nM

SMILES: CN(C)CCOc1ccc(-c2ccc(Cl)c(NC(=O)c3coc(N)n3)c2)cc1
- EC50 [1]: 100 to 250 nM

SMILES: CCNCCCn1cc(-c2ccc(Cl)c(NC(=O)c3coc(N)n3)c2)cn1
- Ratio EC50 [3]: >80
- EC50 [1]: < 100 nM

SMILES: Nc1nc(C(=O)Nc2cc(-c3cnn(CCCN4CCNCC4)c3)ccc2Cl)co1
- EC50 [1]: 100 to 250 nM

SMILES: CN1CCN(c2ncc(-c3ccc(Cl)c(NC(=O)c4coc(N)n4)c3)s2)CC1
- EC50 [1]: 100 to 250 nM

SMILES: Nc1nc(C(=O)Nc2cc(-c3cnn(C4CCNCC4)c3)ccc2Cl)co1
- EC50 [1]: 250 to 500 nM

SMILES: CCN(CC)CCCOc1ncc(-c2ccc(Cl)c(NC(=O)c3coc(N)n3)c2)s1
- EC50 [1]: < 100 nM

SMILES: CN(C)CCOc1ncc(-c2ccc(Cl)c(NC(=O)c3coc(N)n3)c2)cn1
- EC50 [1]: 250 to 500 nM

SMILES: Nc1nc(C(=O)Nc2cc(-c3ccn(C4CCNCC4)n3)ccc2Cl)co1
- EC50 [1]: 250 to 500 nM

SMILES: CN1CCN(CCn2cc(-c3ccc(Cl)c(NC(=O)c4coc(N)n4)c3)cn2)CC1
- EC50 [1]: 250 to 500 nM

SMILES: CCNCCn1cc(-c2ccc(Cl)c(NC(=O)c3coc(N)n3)c2)cn1
- EC50 [1]: 100 to 250 nM

SMILES: CSc1ccc(-c2nc(CN3CCNCC3)cs2)cc1NC(=O)c1coc(N)n1
- EC50 [1]: < 100 nM

SMILES: CNC1CCCN(Cc2csc(-c3ccc(Cl)c(NC(=O)c4coc(N)n4)c3)n2)C1 (configuration not stated)
- EC50 [1]: < 100 nM

SMILES: CSc1ccc(-c2ccc(OCCCN(C)C)nc2)cc1NC(=O)c1coc(N)n1
- EC50 [1]: 250 to 500 nM

SMILES: Nc1nc(C(=O)Nc2cc(-c3nc(CN4CCNCC4)cs3)ccc2Cl)co1
- EC50 [1]: < 100 nM

SMILES: Nc1nc(C(=O)Nc2cc(-c3ccc(CN[C@H]4CC[C@H](N)CC4)nc3)ccc2Cl)co1
- EC50 [1]: 250 to 500 nM

SMILES: CN(C)CCCc1ncc(-c2ccc(Cl)c(NC(=O)c3coc(N)n3)c2)s1
- EC50 [1]: < 100 nM

SMILES: CN1CCC(NC(=O)Cn2cc(-c3ccc(Cl)c(NC(=O)c4coc(N)n4)c3)cn2)CC1
- EC50 [1]: 250 to 500 nM

SMILES: Nc1nc(C(=O)Nc2cc(-c3ccc(OCC4CCCNC4)nc3)ccc2Cl)co1 (configuration not stated)
- EC50 [1]: 250 to 500 nM

SMILES: CN(C)CCCOc1ccc(-c2ccc(Cl)c(NC(=O)c3coc(N)n3)c2)nc1
- EC50 [1]: 250 to 500 nM

SMILES: CN(C)CCOc1ccc(-c2ccc(Cl)c(NC(=O)c3coc(N)n3)c2)cn1
- EC50 [1]: 250 to 500 nM

SMILES: CNCCCOc1ccc(-c2ccc(Cl)c(NC(=O)c3coc(N)n3)c2)cn1
- EC50 [1]: 100 to 250 nM

SMILES: CN(C)CCC(=O)N1CC(Cn2cc(-c3ccc(Cl)c(NC(=O)c4coc(N)n4)c3)cn2)C1
- EC50 [1]: 250 to 500 nM

SMILES: Nc1nc(C(=O)Nc2cc(-c3cnc(OC4CCNCC4)s3)ccc2Cl)co1
- EC50 [1]: < 100 nM

SMILES: CN(C)CCC(=O)N1CCC(n2cc(-c3ccc(Cl)c(NC(=O)c4coc(N)n4)c3)cn2)CC1
- EC50 [1]: 250 to 500 nM

SMILES: Nc1nc(C(=O)Nc2cc(-c3cnc(OC4CCNCC4)nc3)ccc2Cl)co1
- EC50 [1]: 250 to 500 nM

SMILES: Nc1nc(C(=O)Nc2cc(-c3ccc(CN4CCNCC4)nc3)ccc2Cl)co1
- EC50 [1]: 250 to 500 nM

SMILES: CN(C)CCCOc1ncc(-c2ccc(Cl)c(NC(=O)c3coc(N)n3)c2)s1
- Ratio EC50 [3]: >30
- EC50 [1]: < 100 nM

SMILES: Nc1nc(C(=O)Nc2cc(-c3ccc(OC4CCNCC4)nc3)ccc2Cl)co1
- EC50 [1]: 250 to 500 nM

SMILES: CNCCn1cc(-c2ccc(Cl)c(NC(=O)c3coc(N)n3)c2)cn1
- EC50 [1]: 100 to 250 nM

SMILES: CN(C)C1CCN(Cc2csc(-c3ccc(Cl)c(NC(=O)c4coc(N)n4)c3)n2)CC1
- EC50 [1]: 100 to 250 nM

SMILES: CNCCCn1cc(-c2ccc(Cl)c(NC(=O)c3coc(N)n3)c2)cn1
- EC50 [1]: < 100 nM

SMILES: CN(C)CCCOc1ccc(-c2ccc(Cl)c(NC(=O)c3coc(N)n3)c2)cn1
- EC50 [1]: 100 to 250 nM

SMILES: CN(C)C1CCN(C(=O)Cn2cc(-c3ccc(Cl)c(NC(=O)c4coc(N)n4)c3)cn2)CC1
- EC50 [1]: 250 to 500 nM

SMILES: Nc1nc(C(=O)Nc2cc(-c3ccc(N4CCNCC4)cc3)ccc2Cl)co1
- EC50 [1]: 250 to 500 nM

SMILES: CN(C)CCCC(=O)N1CCC(n2cc(-c3ccc(Cl)c(NC(=O)c4coc(N)n4)c3)cn2)CC1
- EC50 [1]: 250 to 500 nM

SMILES: CN1CCN(CCCn2cc(-c3ccc(Cl)c(NC(=O)c4coc(N)n4)c3)cn2)CC1
- EC50 [1]: 100 to 250 nM

SMILES: Nc1nc(C(=O)Nc2cc(-c3ccc(CN4CC5CNCC5C4)nc3)ccc2Cl)co1 (configuration not stated)
- EC50 [1]: 250 to 500 nM

SMILES: CN(C)CC(=O)N1CCC(n2cc(-c3ccc(Cl)c(NC(=O)c4coc(N)n4)c3)cn2)CC1
- EC50 [1]: 100 to 250 nM

SMILES: N#Cc1nn(C2CCNCC2)cc1-c1ccc(Cl)c(NC(=O)c2coc(N)n2)c1
- EC50 [1]: 100 to 250 nM

SMILES: CN1CCN(c2ccc(-c3ccc(Cl)c(NC(=O)c4coc(N)n4)c3)cn2)CC1
- Ratio EC50 [3]: >10
- EC50 [1]: 100 to 250 nM

SMILES: Nc1nc(C(=O)Nc2cc(-c3cnn(C4CCN(CCO)CC4)c3)ccc2Cl)co1
- EC50 [1]: 100 to 250 nM

SMILES: CC1CN(C(=O)Cn2cc(-c3ccc(Cl)c(NC(=O)c4coc(N)n4)c3)cn2)CCN1 (configuration not stated)
- EC50 [1]: 250 to 500 nM

SMILES: CN(C)CCCn1cc(-c2ccc(Cl)c(NC(=O)c3coc(N)n3)c2)cn1
- EC50 [1]: 100 to 250 nM

SMILES: CN1CCC(NCc2ccc(-c3ccc(Cl)c(NC(=O)c4coc(N)n4)c3)cn2)CC1
- EC50 [1]: 100 to 250 nM

SMILES: Nc1nc(C(=O)Nc2cc(-c3cnn(C4CCNC4)c3)ccc2Cl)co1 (configuration not stated)
- EC50 [1]: 100 to 250 nM

SMILES: Cc1nn(C2CCNCC2)cc1-c1ccc(Cl)c(NC(=O)c2coc(N)n2)c1
- EC50 [1]: 100 to 250 nM

SMILES: CNC1CCCN(Cc2ncc(-c3ccc(Cl)c(NC(=O)c4coc(N)n4)c3)s2)C1 (configuration not stated)
- EC50 [1]: 100 to 250 nM

SMILES: Nc1nc(C(=O)Nc2cc(-c3cnn(CCN4CCNCC4)c3)ccc2Cl)co1
- EC50 [1]: 250 to 500 nM

SMILES: CNCC1CCN(Cc2ncc(-c3ccc(Cl)c(NC(=O)c4coc(N)n4)c3)s2)CC1
- EC50 [1]: < 100 nM

SMILES: CN(C)CCNC(=O)Cn1cc(-c2ccc(Cl)c(NC(=O)c3coc(N)n3)c2)cn1
- EC50 [1]: 250 to 500 nM

SMILES: Nc1nc(C(=O)Nc2cc(-c3cnn(CCCNC4CC4)c3)ccc2Cl)co1
- EC50 [1]: 100 to 250 nM

SMILES: CNC1CCC(n2cc(-c3ccc(Cl)c(NC(=O)c4coc(N)n4)c3)cn2)CC1 (mixture of isomers)
- EC50 [1]: < 100 nM
